From PubChem BioAssay (NCI)
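96-well plates; 48 h exposure; 5 concentrations. Endpoints by linear interpolation between flanking doses. Not reached: highest tested concentration assigned. GI50 is the concentration that inhibits growth by half. The concentration for full growth arrest is given as TGI.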

Tests used:
Assay in all cases: growth of human tumour cells (NCI), 48 h
DU-145 prostate = system: DU-145 prostate
SW-620 colon = system: SW-620 colon
SK-OV-3 ovarian = system: SK-OV-3 ovarian
NCI/ADR-RES ovarian = system: NCI/ADR-RES ovarian
HCT-15 colon = system: HCT-15 colon
A498 renal = system: A498 renal
SK-MEL-5 melanoma = system: SK-MEL-5 melanoma
SNB-19 CNS = system: SNB-19 CNS
OVCAR-5 ovarian = system: OVCAR-5 ovarian
A549 NSCLC = system: A549 NSCLC
MOLT-4 leukemia = system: MOLT-4 leukemia
OVCAR-4 ovarian = system: OVCAR-4 ovarian
HOP-62 NSCLC = system: HOP-62 NSCLC
M14 melanoma = system: M14 melanoma
HT29 colon = system: HT29 colon
HL-60(TB) leukemia = system: HL-60(TB) leukemia
SF-539 CNS = system: SF-539 CNS
SN12C renal = system: SN12C renal
CAKI-1 renal = system: CAKI-1 renal
HCC-2998 colon = system: HCC-2998 colon
HS 578T breast = system: HS 578T breast
TK-10 renal = system: TK-10 renal
NCI-H226 lung = system: NCI-H226 lung
OVCAR-8 ovarian = system: OVCAR-8 ovarian
RXF 393 renal = system: RXF 393 renal
RPMI-8226 leukemia = system: RPMI-8226 leukemia
SR leukemia = system: SR leukemia
SNB-75 CNS = system: SNB-75 CNS
MCF7 breast = system: MCF7 breast
T-47D breast = system: T-47D breast
HCT-116 colon = system: HCT-116 colon
HOP-92 NSCLC = system: HOP-92 NSCLC
OVCAR-3 ovarian = system: OVCAR-3 ovarian
UACC-257 melanoma = system: UACC-257 melanoma
ACHN renal = system: ACHN renal
MDA-MB-435 = system: MDA-MB-435
BT-549 breast = system: BT-549 breast
SF-295 CNS = system: SF-295 CNS
MALME-3M melanoma = system: MALME-3M melanoma
MDA-MB-231 breast = system: MDA-MB-231 breast
KM12 colon = system: KM12 colon
PC-3 prostate = system: PC-3 prostate
NCI-H522 lung = system: NCI-H522 lung
SF-268 CNS = system: SF-268 CNS
UO-31 renal = system: UO-31 renal
LOX IMVI melanoma = system: LOX IMVI melanoma
786-0 renal = system: 786-0 renal
EKVX NSCLC = system: EKVX NSCLC
NCI-H23 lung = system: NCI-H23 lung
UACC-62 melanoma = system: UACC-62 melanoma
K-562 leukemia = system: K-562 leukemia
IGROV1 ovarian = system: IGROV1 ovarian
U251 CNS = system: U251 CNS
SK-MEL-28 melanoma = system: SK-MEL-28 melanoma
SK-MEL-2 melanoma = system: SK-MEL-2 melanoma

CCCCCCSSC(=S)N(CC)CC
GI50 (DU-145 prostate): 28.7 µM | TGI (DU-145 prostate): 92.9 µM | GI50 (SW-620 colon): 18.5 µM | TGI (SW-620 colon): 39.6 µM | GI50 (SK-OV-3 ovarian): 28.6 µM | TGI (SK-OV-3 ovarian): 71.1 µM | GI50 (NCI/ADR-RES ovarian): 28.1 µM | TGI (NCI/ADR-RES ovarian): 96.5 µM | GI50 (HCT-15 colon): 28.4 µM | TGI (HCT-15 colon): > 100 µM | GI50 (A498 renal): 70 µM | TGI (A498 renal): > 100 µM | GI50 (SK-MEL-5 melanoma): 14.6 µM | TGI (SK-MEL-5 melanoma): 31.6 µM | GI50 (SNB-19 CNS): 40.3 µM | TGI (SNB-19 CNS): > 100 µM | GI50 (OVCAR-5 ovarian): 20.5 µM | TGI (OVCAR-5 ovarian): 35.9 µM | GI50 (A549 NSCLC): 32.4 µM | TGI (A549 NSCLC): 98.6 µM | GI50 (MOLT-4 leukemia): 17.7 µM | TGI (MOLT-4 leukemia): 44.5 µM | GI50 (OVCAR-4 ovarian): 15.1 µM | TGI (OVCAR-4 ovarian): 28.8 µM | GI50 (HOP-62 NSCLC): 34.6 µM | TGI (HOP-62 NSCLC): > 100 µM | GI50 (M14 melanoma): 19.2 µM | TGI (M14 melanoma): 47.6 µM | GI50 (HT29 colon): 20.5 µM | TGI (HT29 colon): 38.8 µM | GI50 (HL-60(TB) leukemia): 18.1 µM | TGI (HL-60(TB) leukemia): 52.3 µM | GI50 (SF-539 CNS): 17.5 µM | TGI (SF-539 CNS): 43.3 µM | GI50 (SN12C renal): 18.3 µM | TGI (SN12C renal): 40.3 µM | GI50 (CAKI-1 renal): 16.3 µM | TGI (CAKI-1 renal): 36.1 µM | GI50 (HCC-2998 colon): 29.7 µM | TGI (HCC-2998 colon): 91.5 µM | GI50 (HS 578T breast): 28.3 µM | TGI (HS 578T breast): > 100 µM | GI50 (TK-10 renal): 25.8 µM | TGI (TK-10 renal): 56.7 µM | GI50 (NCI-H226 lung): 35.4 µM | TGI (NCI-H226 lung): > 100 µM | GI50 (OVCAR-8 ovarian): 20 µM | TGI (OVCAR-8 ovarian): 46.6 µM | GI50 (RXF 393 renal): 17.1 µM | TGI (RXF 393 renal): 32.9 µM | GI50 (RPMI-8226 leukemia): 18.8 µM | TGI (RPMI-8226 leukemia): > 100 µM | GI50 (SR leukemia): 0.0589 µM | TGI (SR leukemia): 29.1 µM | GI50 (SNB-75 CNS): 16.8 µM | TGI (SNB-75 CNS): 47.6 µM | GI50 (MCF7 breast): 13.9 µM | TGI (MCF7 breast): 30.8 µM | GI50 (T-47D breast): 25.4 µM | TGI (T-47D breast): > 100 µM | GI50 (HCT-116 colon): 14.4 µM | TGI (HCT-116 colon): 28.5 µM | GI50 (HOP-92 NSCLC): 32.4 µM | TGI (HOP-92 NSCLC): > 100 µM | GI50 (OVCAR-3 ovarian): 17.8 µM | TGI (OVCAR-3 ovarian): 34.3 µM | GI50 (UACC-257 melanoma): 48.3 µM | TGI (UACC-257 melanoma): > 100 µM | GI50 (ACHN renal): 20.1 µM | TGI (ACHN renal): 41.7 µM | GI50 (MDA-MB-435): 22.1 µM | TGI (MDA-MB-435): 57.9 µM | GI50 (BT-549 breast): 17.1 µM | TGI (BT-549 breast): 45.2 µM | GI50 (SF-295 CNS): 17.4 µM | TGI (SF-295 CNS): 51.1 µM | GI50 (MALME-3M melanoma): 23 µM | TGI (MALME-3M melanoma): 60.4 µM | GI50 (MDA-MB-231 breast): 17.5 µM | TGI (MDA-MB-231 breast): 39.2 µM | GI50 (KM12 colon): 15.2 µM | TGI (KM12 colon): 32.1 µM | GI50 (PC-3 prostate): 20.5 µM | TGI (PC-3 prostate): 57.6 µM | GI50 (NCI-H522 lung): 1.66 µM | TGI (NCI-H522 lung): 21.3 µM | GI50 (SF-268 CNS): 33.5 µM | TGI (SF-268 CNS): > 100 µM | GI50 (UO-31 renal): 18.1 µM | TGI (UO-31 renal): 34.9 µM | GI50 (LOX IMVI melanoma): 15.3 µM | TGI (LOX IMVI melanoma): 33.1 µM | GI50 (786-0 renal): 20.4 µM | TGI (786-0 renal): 39.4 µM | GI50 (EKVX NSCLC): 37.1 µM | TGI (EKVX NSCLC): > 100 µM | GI50 (NCI-H23 lung): 27.8 µM | TGI (NCI-H23 lung): 92.8 µM | GI50 (UACC-62 melanoma): 17.2 µM | TGI (UACC-62 melanoma): 36.9 µM | GI50 (K-562 leukemia): 14.7 µM | TGI (K-562 leukemia): 39.5 µM | GI50 (IGROV1 ovarian): 31.5 µM | TGI (IGROV1 ovarian): 86.7 µM | GI50 (U251 CNS): 14.2 µM | TGI (U251 CNS): 30.6 µM | GI50 (SK-MEL-28 melanoma): 25 µM | TGI (SK-MEL-28 melanoma): 61.4 µM | GI50 (SK-MEL-2 melanoma): 25 µM | TGI (SK-MEL-2 melanoma): 58.7 µM
